Legend:
Artemis:DNA-PKcs complex = molecular target: T1, Artemis:DNA-PKcs complex (Homo sapiens, UniProt P78527); assay: In vitro nuclease assay: effect of a DNA-PKcs inhibitor and of ATP analogs on hairpin opening; type: biochemical; details: for effect of DNA-PKcs (conferring hairpin opening activity on Artemis) when analog is used instead of ATP: 1 mM ATP analog, DFL16.1 hairpin, FIG. 5B lanes 5, 6
T1 construct: Native DNA-PKcs was purified as described (Chan et al., 1996) except that HeLa cells were used as the source; made in house; host or cells: Artemis-myc-His: transfected 293T cells (Ni-NTA, then anti-myc immunobeads); DNA-PKcs: endogenous protein purified from HeLa cells
T1 sequence (P78527 whole entry): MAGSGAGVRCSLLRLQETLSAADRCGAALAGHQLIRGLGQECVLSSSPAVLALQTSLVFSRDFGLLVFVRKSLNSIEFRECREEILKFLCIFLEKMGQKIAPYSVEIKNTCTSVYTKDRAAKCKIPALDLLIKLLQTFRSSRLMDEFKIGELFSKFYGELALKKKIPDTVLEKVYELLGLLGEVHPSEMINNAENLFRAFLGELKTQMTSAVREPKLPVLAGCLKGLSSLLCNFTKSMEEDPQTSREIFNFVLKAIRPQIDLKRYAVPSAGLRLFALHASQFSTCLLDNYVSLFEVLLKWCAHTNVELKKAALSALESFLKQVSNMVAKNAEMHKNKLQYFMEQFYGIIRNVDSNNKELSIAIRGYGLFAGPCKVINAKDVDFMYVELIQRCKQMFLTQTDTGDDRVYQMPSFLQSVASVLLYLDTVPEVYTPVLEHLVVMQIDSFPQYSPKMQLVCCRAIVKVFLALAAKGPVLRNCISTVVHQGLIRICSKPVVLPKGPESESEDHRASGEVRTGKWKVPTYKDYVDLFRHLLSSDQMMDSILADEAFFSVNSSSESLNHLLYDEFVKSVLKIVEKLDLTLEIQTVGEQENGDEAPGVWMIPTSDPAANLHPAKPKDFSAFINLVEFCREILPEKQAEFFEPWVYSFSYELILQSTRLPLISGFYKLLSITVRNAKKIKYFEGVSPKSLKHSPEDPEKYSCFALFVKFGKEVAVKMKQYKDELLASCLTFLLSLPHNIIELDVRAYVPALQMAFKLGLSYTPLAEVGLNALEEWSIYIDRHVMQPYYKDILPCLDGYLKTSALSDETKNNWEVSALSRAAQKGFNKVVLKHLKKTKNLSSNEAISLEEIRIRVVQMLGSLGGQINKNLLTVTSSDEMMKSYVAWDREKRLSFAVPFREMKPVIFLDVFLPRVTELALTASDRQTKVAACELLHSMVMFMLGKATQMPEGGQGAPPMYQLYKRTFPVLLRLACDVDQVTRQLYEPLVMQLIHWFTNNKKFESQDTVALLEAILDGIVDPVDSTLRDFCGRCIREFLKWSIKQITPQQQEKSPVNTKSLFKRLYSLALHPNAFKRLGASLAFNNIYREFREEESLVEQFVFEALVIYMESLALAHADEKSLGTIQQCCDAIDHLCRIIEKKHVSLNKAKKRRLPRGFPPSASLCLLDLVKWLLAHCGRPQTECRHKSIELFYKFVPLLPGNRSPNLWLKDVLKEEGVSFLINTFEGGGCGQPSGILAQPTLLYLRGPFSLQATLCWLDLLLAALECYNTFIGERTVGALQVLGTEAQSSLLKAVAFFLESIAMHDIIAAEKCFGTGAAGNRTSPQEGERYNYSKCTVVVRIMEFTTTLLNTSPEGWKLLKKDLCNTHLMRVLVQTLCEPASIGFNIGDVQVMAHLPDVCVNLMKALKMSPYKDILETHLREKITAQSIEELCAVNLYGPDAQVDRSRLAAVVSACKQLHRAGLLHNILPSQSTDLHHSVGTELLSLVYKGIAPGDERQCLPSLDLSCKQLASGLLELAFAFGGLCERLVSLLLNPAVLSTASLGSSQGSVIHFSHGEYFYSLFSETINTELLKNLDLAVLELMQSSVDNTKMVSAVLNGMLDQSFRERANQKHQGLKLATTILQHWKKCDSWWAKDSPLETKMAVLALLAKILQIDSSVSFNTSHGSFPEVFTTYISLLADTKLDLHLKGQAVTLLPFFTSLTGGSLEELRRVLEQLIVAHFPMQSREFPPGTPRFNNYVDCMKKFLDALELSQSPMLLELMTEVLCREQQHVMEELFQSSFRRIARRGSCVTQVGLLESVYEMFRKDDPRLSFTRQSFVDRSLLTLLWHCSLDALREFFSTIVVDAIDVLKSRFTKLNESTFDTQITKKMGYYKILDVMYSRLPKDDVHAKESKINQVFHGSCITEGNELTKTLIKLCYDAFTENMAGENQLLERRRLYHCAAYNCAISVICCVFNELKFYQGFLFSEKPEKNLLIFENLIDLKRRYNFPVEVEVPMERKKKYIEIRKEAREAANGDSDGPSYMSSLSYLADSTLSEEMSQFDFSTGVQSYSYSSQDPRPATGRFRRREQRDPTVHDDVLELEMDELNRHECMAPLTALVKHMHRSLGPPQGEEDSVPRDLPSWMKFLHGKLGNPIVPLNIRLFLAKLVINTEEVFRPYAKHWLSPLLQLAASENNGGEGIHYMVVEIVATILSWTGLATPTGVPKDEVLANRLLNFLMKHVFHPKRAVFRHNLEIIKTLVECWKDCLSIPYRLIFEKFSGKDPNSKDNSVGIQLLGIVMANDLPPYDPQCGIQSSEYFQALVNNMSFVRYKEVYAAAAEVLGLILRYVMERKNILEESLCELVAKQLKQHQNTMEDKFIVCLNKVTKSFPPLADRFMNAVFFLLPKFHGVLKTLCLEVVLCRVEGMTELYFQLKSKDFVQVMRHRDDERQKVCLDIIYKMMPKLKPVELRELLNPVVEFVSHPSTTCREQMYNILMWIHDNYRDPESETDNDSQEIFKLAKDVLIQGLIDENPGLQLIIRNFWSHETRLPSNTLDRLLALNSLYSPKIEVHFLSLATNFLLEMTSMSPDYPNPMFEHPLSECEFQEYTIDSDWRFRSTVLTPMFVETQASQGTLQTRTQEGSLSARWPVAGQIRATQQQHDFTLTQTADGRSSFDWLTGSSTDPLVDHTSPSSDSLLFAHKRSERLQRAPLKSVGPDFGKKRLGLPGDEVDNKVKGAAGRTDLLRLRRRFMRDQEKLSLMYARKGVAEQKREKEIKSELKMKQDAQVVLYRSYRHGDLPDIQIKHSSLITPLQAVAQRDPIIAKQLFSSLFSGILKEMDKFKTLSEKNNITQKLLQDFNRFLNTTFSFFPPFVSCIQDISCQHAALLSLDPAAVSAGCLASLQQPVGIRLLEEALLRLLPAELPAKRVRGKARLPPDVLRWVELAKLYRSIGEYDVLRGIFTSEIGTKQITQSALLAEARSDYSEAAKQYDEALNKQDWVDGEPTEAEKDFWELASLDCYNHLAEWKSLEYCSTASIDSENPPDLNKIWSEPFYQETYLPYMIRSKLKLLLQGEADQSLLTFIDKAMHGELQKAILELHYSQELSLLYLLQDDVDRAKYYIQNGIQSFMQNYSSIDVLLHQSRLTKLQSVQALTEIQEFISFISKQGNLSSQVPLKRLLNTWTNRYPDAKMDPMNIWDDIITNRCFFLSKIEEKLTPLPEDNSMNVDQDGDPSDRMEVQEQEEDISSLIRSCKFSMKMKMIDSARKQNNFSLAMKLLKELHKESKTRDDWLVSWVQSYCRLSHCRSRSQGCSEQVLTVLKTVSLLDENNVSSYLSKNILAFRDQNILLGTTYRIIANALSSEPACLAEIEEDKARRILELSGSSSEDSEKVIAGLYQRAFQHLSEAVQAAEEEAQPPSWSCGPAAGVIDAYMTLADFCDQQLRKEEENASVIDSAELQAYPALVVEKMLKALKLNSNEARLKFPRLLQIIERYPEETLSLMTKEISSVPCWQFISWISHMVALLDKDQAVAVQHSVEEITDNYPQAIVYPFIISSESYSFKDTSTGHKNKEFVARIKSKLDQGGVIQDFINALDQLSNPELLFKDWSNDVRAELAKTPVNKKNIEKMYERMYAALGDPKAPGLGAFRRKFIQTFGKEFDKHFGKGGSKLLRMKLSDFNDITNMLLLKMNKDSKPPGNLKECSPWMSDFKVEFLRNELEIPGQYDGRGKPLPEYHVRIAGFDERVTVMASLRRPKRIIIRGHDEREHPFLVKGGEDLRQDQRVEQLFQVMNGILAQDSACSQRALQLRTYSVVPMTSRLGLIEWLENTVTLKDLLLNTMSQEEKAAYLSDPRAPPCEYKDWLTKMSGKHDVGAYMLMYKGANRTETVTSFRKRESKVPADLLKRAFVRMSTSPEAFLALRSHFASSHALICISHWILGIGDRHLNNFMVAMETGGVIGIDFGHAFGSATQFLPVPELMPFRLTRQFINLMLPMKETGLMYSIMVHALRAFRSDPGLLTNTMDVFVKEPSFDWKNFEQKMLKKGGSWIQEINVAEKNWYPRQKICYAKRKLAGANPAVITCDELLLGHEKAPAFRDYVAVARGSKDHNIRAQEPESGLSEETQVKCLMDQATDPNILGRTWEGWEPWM
T1 sequence (Q96SD1 whole entry partner): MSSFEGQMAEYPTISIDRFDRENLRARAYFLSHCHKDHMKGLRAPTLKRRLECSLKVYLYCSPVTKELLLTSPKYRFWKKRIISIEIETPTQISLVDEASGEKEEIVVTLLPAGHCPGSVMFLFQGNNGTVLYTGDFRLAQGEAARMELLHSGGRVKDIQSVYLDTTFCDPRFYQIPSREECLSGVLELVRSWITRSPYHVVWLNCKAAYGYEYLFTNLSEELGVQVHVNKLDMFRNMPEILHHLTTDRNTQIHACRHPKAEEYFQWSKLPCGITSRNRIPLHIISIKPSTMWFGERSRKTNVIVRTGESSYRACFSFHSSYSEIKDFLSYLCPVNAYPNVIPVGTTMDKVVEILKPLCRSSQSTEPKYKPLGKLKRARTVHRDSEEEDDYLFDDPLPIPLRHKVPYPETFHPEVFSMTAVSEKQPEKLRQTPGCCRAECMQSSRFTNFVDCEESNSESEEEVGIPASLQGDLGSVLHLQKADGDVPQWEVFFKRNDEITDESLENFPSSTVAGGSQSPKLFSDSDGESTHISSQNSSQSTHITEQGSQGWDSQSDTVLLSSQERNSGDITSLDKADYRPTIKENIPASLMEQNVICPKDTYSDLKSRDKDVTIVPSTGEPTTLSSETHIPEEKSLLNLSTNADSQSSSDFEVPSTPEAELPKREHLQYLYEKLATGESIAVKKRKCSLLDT
Procedure: (§1) Nuclease assays without RAGs were carried out in a total volume of 10 μL with a buffer composition of 25 mM Tris, pH 8.0, 10-50 mM NaCl or KCl, 10 mM MgCl2, 1 mM DTT, and 50 ng/μL of BSA unless otherwise specified. To the buffer mixture, Artemis was added to 2.75 pmol, and DNA-PKcs and Ku were added to 1.25 pmol each. 0.25 mM of ATP (or ADP, ATP-y-S, AMP-PNP) and […] of 35 bp DNA were included where DNA-PKcs was used. Reactions were incubated at 37° C. for 30 minutes. In reactions including DNA-PKcs inhibitors, reaction mixtures without the substrate were incubated on ice for 15 minutes before the addition of the substrate and the subsequent incubation at 37° C. In FIG. 7, pre-phosphorylation of Artemis-myc-His immunobeads was carried out under DNA-PK kinase assay conditions. After washing the treated immunobeads with buffer F for three times and the nuclease assay buffer for two times, the beads were used for the nuclease reactions. In the hairpin opening of RAG-generated hairpins (FIG. 8), the reactions contained 25 mM K-HEPES, pH 7.4, 50 mM KCl, 10 mM MgCl2, 1 mM DTT, 0.25 pmol of labeled 12-RSS double-stranded oligonucleotides (KY28/KY29) and an equal amount of unlabeled 23-RSS double-stranded oligonucleotides (KY36/KY37), 1 pmol of RAGs (assuming that the RAG complex consists of two RAG-1 and two RAG-2 subunits), 2 pmol of HMG1, 2.75 pmol of Artemis-myc-His, and 1.25 pmol of DNA-PKcs (with ATP and 35 bp DNA as described above). For the sequential reactions, substrates were incubated with RAG complex alone first at 37° C. for 60 minutes, extracted with or without phenol/chloroform, then Artemis-myc-His and DNA-PKcs were added, followed by another 30-minute incubation at 37° C. Reactions with the RAG complex, Artemis, and DNA-PKcs added simultaneously were incubated for 90 minutes at the same temperature. After incubation, reactions were stopped by adding an equal volume of formamide gel loading buffer and beating at 100° C. for 5 minutes. DNA was resolved on 12% denaturing polyacrylamide gels. […] Data was analyzed by ImageQuant software (v5.0). […]

20 bp hairpin (DFL16.1) = assay: In vitro nuclease assay: hairpin opening by Artemis proteins; type: biochemical
Procedure: as §1

dsDNA = details: read-out: equilibrium binding affinity for dsDNA; cited from earlier work

## Nc1ncnc2c1ncn2[C@@H]1O[C@H](COP(=O)(O)OP(=O)(O)O)[C@@H](O)[C@H]1O [ADP]
Artemis:DNA-PKcs complex; ADP instead of ATP, 20 bp artificial GC hairpin with 6-nucleotide 5′ overhang, FIG. 7 lane 3
  endonucleolytic activity on hairpins and 5′ ends, relative to ATP: lower level of endonucleolytic activity

## Nc1ncnc2c1ncn2[C@@H]1O[C@H](COP(=O)(O)OP(=O)(O)NP(=O)(O)O)[C@@H](O)[C@H]1O [AMP-PNP]
Artemis:DNA-PKcs complex
  effect of DNA-PKcs (conferring hairpin opening activity on Artemis) when analog is used instead of ATP: largely suppressed

## Nc1ncnc2c1ncn2[C@@H]1O[C@H](COP(=O)(O)OP(=O)(O)OP(O)(O)=S)[C@@H](O)[C@H]1O [ATP-γ-S]
Artemis:DNA-PKcs complex
  effect of DNA-PKcs (conferring hairpin opening activity on Artemis) when analog is used instead of ATP: largely suppressed

## Artemis: full-length human Artemis with C-terminal myc-His tag, expressed in 293T cells, used on immunobeads as the enzyme
20 bp hairpin (DFL16.1); Artemis alone, without DNA-PKcs, FIG. 5A lane 2
  hairpin opening: No hairpin opening
20 bp hairpin (DFL16.1); with DNA-PKcs present, 37° C., 30 minutes, FIG. 5A lanes 4-6, said to be probably an underestimation
  hairpins opened during the time interval: about 40%

## D165N: D165N point mutant of Artemis, same expression vector as wild type
20 bp hairpin (DFL16.1); in the presence of DNA-PKcs
  hairpin opening activity: lacks any hairpin opening activity

## DNA-PKcs: native catalytic subunit of DNA-dependent protein kinase, 469 kDa, purified from HeLa cells
dsDNA
  Kd: ~1 nM
